Assay results taken from patent US20230277583A1, “ENTERAL CARBON MONOXIDE FOR THE PREVENTION AND TREATMENT OF OCULAR DISEASES” (Augusta University Research Institute, Inc., priority 2022, published 2023).

Columns and labels:
[1] = CO concentration achievable in aqueous composition at various temperature and pressure; format: physicochemical
Method: For example, CO can be dissolved in an aqueous liquid under higher than ambient pressure. The use of pressure to dissolve the CO increases the achievable concentration of CO in solution. […] For example, lowering of the temperature below 2° C. and increasing the pressure above 10 ATM can achieve an even greater concentration of CO dissolved in the aqueous solution. […] Although raising the pressure above 10 ATM might not be commercially practicable, it is technologically feasible at this time.
The method of making a CO-containing liquid composition relies on the use of greater than atmospheric pressure (i.e., “high” pressure) to increase the amount of CO dissolved in the liquid composition. In some embodiments, at least 1.1 atmospheres (ATM) of pressure is used in the process of introducing CO into the liquid composition. Preferably, where high pressure is used, at least 1.2 ATM is used. In certain exemplary embodiments, 2 ATM, 3 ATM, or 5 ATM is used during introduction of CO into the liquid composition. It is contemplated that pressures above 5 ATM are also suitable, such as 6 ATM, 7 ATM, 8 ATM, and 10 ATM or higher. In accordance with the discussion concerning ranges set forth above, all specific values, and all possible ranges, falling within the atmospheric conditions discussed herein are contemplated. Furthermore, variations in the source of CO, the equipment used to introduce the CO into the liquid composition, the pressure of the CO being used (i.e., volume supplied per unit time), and the atmospheric pressures used will affect the amount of time required to achieve a suitable concentration of CO in the composition.
The method of making a CO-containing liquid composition preferably includes subjecting the composition to a low temperature during the step of exposing the liquid to CO. […] A low temperature is typically a temperature at or below 4° C., preferably at or below 2° C., such as 1° C., 0° C., −1° C., −2° C., −3° C., −4° C., −5° C., −6° C., −10° C., −12° C., −14° C., −16° C., −18° C., −20° C., or below. In embodiments where the composition is exposed to a low temperature, it is preferred that the CO-containing liquid composition be sealed to preclude loss of dissolved CO over time. Accordingly, in embodiments, the method of making a CO-containing liquid composition includes dispensing the liquid composition into a sealable container and sealing the container after an appropriate amount of CO has been dissolved in the liquid composition. Dispensing of the liquid can be performed before, during, or after dissolving CO into the liquid composition. Typically, sealing will be performed under low temperature to minimize loss of dissolved CO during the process of sealing. As discussed above, any number of sealable containers and caps are known in the art of bottling and canning of liquids, and any of these can be used within the context of the present disclosure. For the sake of clarity, in embodiments where both high pressure and low temperature are used, it is preferred that sealing be performed under both high pressure and low temperature, although the same pressure and temperature used for dissolving CO into the liquid need not be used. Further, it is to be understood that, once the CO-containing liquid is sealed in a container under CO gas, it is not necessary to maintain the sealed container at high pressure and low temperature, as the sealed container will not allow dissolved CO to escape from solution.

[2] = cited from earlier work
[3] = low dose CO reaching <20% COHb saturation; cited from earlier work

[C-]#[O+] [CO, carbon monoxide]
CO Concentration Achievable in Aqueous Composition ([1]; 2° C., 1 ATM): 40 mg/L water | CO Concentration in Aqueous Solution ([1]; 2° C., 1 ATM): 40 mg/L water | CO Concentration Achievable in Aqueous Composition ([1]; 2° C., 2 ATM): 80 mg/L water | CO Concentration in Aqueous Solution ([1]; 2° C., 2 ATM): 80 mg/L water | CO Concentration Achievable in Aqueous Composition ([1]; 2° C., 3 ATM): 120 mg/L water | CO Concentration in Aqueous Solution ([1]; 2° C., 3 ATM): 120 mg/L water | CO Concentration Achievable in Aqueous Composition ([1]; 2° C., 5 ATM): 200 mg/L water | CO Concentration in Aqueous Solution ([1]; 2° C., 5 ATM): 200 mg/L water | CO Concentration Achievable in Aqueous Composition ([1]; 2° C., 10 ATM): 400 mg/L water | CO Concentration in Aqueous Solution ([1]; 2° C., 10 ATM): 400 mg/L water | CO Concentration Achievable in Aqueous Composition ([1]; 21° C., 1 ATM): 25 mg/L water | half-life of the alpha-phase of CO in the human bloodstream [2]: 4 to 6 h | safety and tolerability [3]: safe and tolerable
